Consider one compound from patent US6946469B2, “Cyanamide, alkoxyamino, and urea derivatives of 4,4-disubstituted-3,4-dihydro-2(1H)-quinazolinones as HIV reverse transcriptase inhibitors” (Bristol-Myers Squibb Pharma Company, priority 2001, dated 2005).

This experiment concerns HIV-1 (RF). Briefly: HIV RNA assay: microplate based compound evaluation in HIV-1 infected MT-2 cells. The settings on record: Human immunodeficiency virus 1, MT2, 72 h; HIV-1 (RF) infected MT-2 cells, 3 days of culture; virus dilution selected to give this value (inoculum standardisation); read-out: IC90 value (concentration of compound required to reduce the HIV RNA level by 90%). The experiment is classed as cell-based. The protocol: MT-2 and MT-4 cells were maintained in RPMI 1640 supplemented with 5% fetal calf serum (FCS) for MT-2 cells or 10% FCS for MT-4 cells, 2 mM L-glutamine and 50 μg/mL gentamycin, all from Gibco. HIV-1 RF was propagated in MT-4 cells in the same medium. Virus stocks were prepared approximately 10 days after acute infection of MT-4 cells and stored as aliquots at −70° C. Infectious titers of HIV-1 (RF) stocks were 1-3×10^7 PFU (plaque forming units)/mL as measured by plaque assay on MT-2 cells (see below). Each aliquot of virus stock used for infection was thawed only once.
For evaluation of antiviral efficacy, cells to be infected were subcultured one day prior to infection. […]
Cell lysates or purified RNA in 3 M or 5 M GED were mixed with 5 M GED and capture probe to a final guanidinium isothiocyanate concentration of 3 M and a final biotin oligonucleotide concentration of 30 nM. […] Immobilized alkaline phosphatase activity was detected by addition of 100 μL of 0.2 mM 4-methylumbelliferyl phosphate (MUBP, JBL Scientific) in buffer δ(2.5 M diethanolamine pH 8.9 (JBL Scientific), 10 mM MgCl2, 5 mM zinc acetate dihydrate and 5 mM N-hydroxyethyl-ethylene-diamine-triacetic acid). […] Fluorescence at […] was measured using a microplate fluorometer (Dynateck) exciting at […]. […]

Converted amounts (≈) assume the structure as drawn.

For `Nc1ccn([C@H]2CC[C@@H](CO)O2)c(=O)n1` [ddC, 2′,3′-dideoxycytidine], the IC90 is 0.2 µg/mL (≈ 0.947 µM).
